Measured values taken from patent EP0398426A1, “Antirhinoviral (thio)morpholinyl and piperazinyl alkylphenol ethers” (JANSSEN PHARMACEUTICA N.V., priority 1989, dated 1990).
Converted amounts (≈) assume the structure as drawn.

What was measured:
[1] = test system: Human Rhinovirus serotypes HRV- 2,-29,-39,-85,-9,-15,-51,-59,-63,-89,-41; assay: Picornavirus Minimal Inhibitory Concentration Test (cytopathic effect reduction assay), first panel of rhinoviruses; assay type: cell-based; conditions: Human rhinovirus sp.; medium value of the IC50-values of all serotypes of the first panel; Ohio Hela cells, 3 to 5 days at 33°C; concentration protecting 50% of the cells from cytopathic effects; read-out: Med₁
Protocol: (§1) The Minimal Inhibitory Concentration of the compounds of the present invention against the Human Rhinovirus strains (HRV) -2,-9,-14,-15,-29,-39,-41,-42,-45,-51,-59,-63, -70,-72,-85,-86,-89 was determined by a standard cytopathic effect reduction assay as follows. To each of the ninty six (96) wells of a microtiter 96 well tissue culture plate there was added 60 µl of a Ohio Hela cell maintenance medium [Eagle's Basal medium supplemented with 5% Foetal Calf Serum (FCS)]. To two wells there was added 60 µl of an appropriate starting dilution of a compound of formula (I) and two-fold dilutions were made to cover a wide range of compound concentrations. Subsequently there were added 120 µl of an infectious solution of virus in Eagle's Basal Medium with 2% Hepes buffer, 2% FCS and 30 mM MgCl₂ to all wells except cell and compound controls. Said infectious virus solution having a TCID₅₀-value (Tissue Culture Infectious Dose) of about 100.
(§2) The TCID₅₀-value is the dose of viruses which initiates a cytopathic effect in 50% of the inoculated cells. 150 µl of the thus obtained virus-compound mixtures were then transferred to microtitre plates with subconfluent Ohio Hela Cells, grown in 100 µl of maintenance medium. Appropriate virus controls, cell controls and compound controls were included in each test. […] The IC₅₀-value for each virus-compound series was taken as the concentration in ng/ml that protected 50% of the cells from cytopathic effects with respect to the untreated controls. In the standard test procedure, the compounds were tested against two panels of rhinoviruses, a first panel consisting of serotypes HRV- 2,-29,-39,-85,-9,-15,-51,-59,-63,-89,-41 and the other panel consisting of HRV-42,-45,-14,-70,-72 and -86.
(§3) The IC₅₀-value for each rhinovirus serotype was determined, and the efficacy of each compound was determined in terms of the Med₁-value and Med₂-value, which is the medium value of the IC₅₀-values of all serotypes from the first and second panel respectively.

[2] = test system: Human Rhinovirus serotypes HRV-42,-45,-14,-70,-72 and -86; assay: Picornavirus Minimal Inhibitory Concentration Test (cytopathic effect reduction assay), second panel of rhinoviruses; assay type: cell-based; conditions: Human rhinovirus sp., HRV42, HeLa, read-out: Med₂
Protocol: as §1, §2, §3

SMILES | IC50 [1] | IC50 [2]
CCOC(=O)c1ccc(OCCC2CN(c3nnc(C)s3)CCO2)cc1 (stereo not drawn) [compound 21] | 6 ng/mL (≈ 0.0159 µM) | 21 ng/mL (≈ 0.0556 µM)
CCOC(=O)c1ccc(OCCC2CN(c3ccc(Cl)nn3)CCO2)cc1 (stereo not drawn) [compound 11] | 6 ng/mL (≈ 0.0153 µM) | 29 ng/mL (≈ 0.074 µM)
CCOC(=O)c1ccc(OCCC2CN(c3ccc(Br)nn3)CCO2)cc1 (stereo not drawn) [compound 17] | 2 ng/mL (≈ 0.00458 µM) | 22 ng/mL (≈ 0.0504 µM)
CCOC(=O)c1ccc(OCCC2CN(c3ccc(SC)nn3)CCO2)cc1 (stereo not drawn) [compound 23, ethyl 4-[2-[4-[6-(methylthio)-3-pyridazinyl]-2-morpholinyl]ethoxy]benzoate] | 3 ng/mL (≈ 0.00743 µM) | 12 ng/mL (≈ 0.0297 µM)
CCOC(=O)c1ccc(OCCC2CN(c3ccc(I)nn3)CCO2)cc1 (stereo not drawn) [compound 20] | 2 ng/mL (≈ 0.00414 µM) | 12 ng/mL (≈ 0.0248 µM)
CCOC(=O)c1ccc(OCCC2CN(c3ccc(C)nn3)CCO2)cc1 (stereo not drawn) [compound 26] | 5 ng/mL (≈ 0.0135 µM) | 29 ng/mL (≈ 0.0781 µM)
